Measured values published in US20240188561A1, “ADDITIVES FOR ENHANCING THE PESTICIDAL EFFECTIVENESS OF PESTICIDAL MICROORGANISMS” (priority 2021, published 2024).

What was measured:
Pseudomonas fluorescens = experiment: Additive compatibility with microbial growth (growth slope by OD 620 nm); type: cell-based; conditions: additive 0.01-5 %, exposed 4 hours at 16° C., then tryptic soy broth 30° C., slope compared to 0% sample
[1] = test system: Downy Mildew (Plasmopara viticola); experiment: Spray trial on first year grape vines, Downy Mildew infection; type: in vivo; conditions: in words
Description: Eight solutions were prepared as described in Table 2a. These solutions were sprayed on first year grape vines showing no signs of Downy Mildew (Plasmopara viticola). […] Six of the solutions included Additive Blend 1 (a 50:50 blend of POE 10 soybean oil and PEG 400 dioleate).
Four applications were made over a month to the same grape vines. At the end of the month, the infection rates of Downy Mildew were evaluated by comparing to untreated grape vines.
Eight solutions were prepared as described in Table 6a. These solutions were sprayed on first year grape vines showing no signs of Downy Mildew (Plasmopara viticola). […] Six of the solutions included PEG 400 dioleate.

Bacillus subtilis = experiment: Additive compatibility with microbial growth (growth slope by OD 620 nm); type: cell-based; conditions: additive 0.01-5 %, exposed 4 hours at 16° C., then tryptic soy broth 30° C., slope compared to 0% sample
[2] = test system: Bacillus amyloliquefaciens; experiment: as above; type: cell-based; conditions: additive 0.01-5 %, exposed 4 hours at 16° C., then tryptic soy broth 30° C., slope compared to 0% sample
Bacillus firmus = experiment: as above; type: cell-based; conditions: additive 0.01-5 %, exposed 4 hours at 16° C., then tryptic soy broth 30° C., slope compared to 0% sample

PEG 400 dioleate [v-3]
Influence of additive on microbial growth slope (compatibility), Pseudomonas fluorescens (Pseudomonas fluorescens): E (E represents an Enhancing result)
Control of Downy Mildew (lower %-Infection) when additive was added to Serifel Biofungicide spray solutions [1]: improved control
Influence of additive on microbial growth slope (compatibility), Bacillus subtilis (Bacillus subtilis): E (E represents an Enhancing result)
Influence of additive on microbial growth slope (compatibility), Bacillus amyloliquefaciens [2]: E (E represents an Enhancing result)
Influence of additive on microbial growth slope (compatibility), Bacillus firmus (Bacillus firmus): E (E represents an Enhancing result)
